From patent US10471076B2, “Compositions and methods to treat vision disorders” (YouHealth Biotech, Limited, priority 2014, dated 2019)
“Also recorded” adds a separate entry of the source.

Assays:
[1] = system: cataract-causing mutant crystallin proteins; test: Intracellular aggregation of mutant crystallins in transfected human lens progenitor cells; type: cell-based
Description: To assess the effect of lanosterol on crystallin aggregation, human lens progenitor cells were co-transfected with LSS and various crystallin constructs for 4 h. Cells co-transfected with crystallin mutants and pcDNA3.1-N-Flag were used as a control. Human lens progenitor cells co-transfected with LSS and crystallin mutant constructs were cultured for 12 h before assaying for aggregates. The rescue experiments were performed after 16 h by addition of 40 mM sterols (lanosterol or cholesterol, Sigma-Aldrich) to the cell culture medium for 2 h, which was then replaced with fresh culture medium and cells cultured for 24 h. The percentage of cells with crystallin aggregates was calculated from ten randomly selected viewing fields. The values of the wild-type LSS group, mutant group, and mutant plus lanosterol group were calculated. Cells treated with 1% DMSO were used as the controls.
The impact of LSS and lanosterol on intracellular crystallin aggregation were evaluated in single-blinded observer studies. Experiments have been repeated at least three times. P values were calculated using Student's t-tests. Fluorescence microscopy. Equal amounts of the human lens progenitor cells, HLEB-3 cells or HeLa cells were seeded on glass coverslips pretreated with TC (Solarbio). After culturing for 24 h to reach 90% confluency, the cells were transfected with plasmids containing various LSS or crystallin genes or co-transfected with plasmids containing a certain crystallin gene and those containing the wild-type or mutated LSS gene. The controls were cells transfected with the plasmids containing peGFP-N1 and/or peDNA3.1-N-Flag. Both transfection and co-transfection were performed using Lipofectamine 3000 (Invitrogen) according to the instructions from the manufacturer.
The effect of lanosterol or cholesterol on the aggresome formation of various crystallins was studied by transfecting the cells with plasmids containing various crystallin genes. The cells were incubated for 24 h to enable efficient protein expression and aggresome formation. The cells were then treated with 0-40 mM sterols in 1% (for human lens progenitor cells) or 2% DMSO (for HeLa cells). Cells treated with 1% or 2% DMSO were used as the control. After treatment for 2 h, the media was replaced with fresh media. After 12 h, the cells were used for microscopy analysis.
The microscopy samples were prepared by washing the slips with phosphate buffered saline (PBS) three times. The cells were fixed with 4% paraformaldehyde for 40 min followed by another three washes with PBS. The cells were permeabilized with 0.1% Triton X-100 (Sigma) in PBS for 10 min and blocked with 5% normal goat serum in PBS for 1 h at 37° C. […] The mounted cells were analysed using a Carl Zeiss LSM 710 confocal microscope.

[2] = system: cataract-causing mutant crystallins; test: Western blot of soluble and insoluble fractions of cell lysates; type: cell-based; conditions: human lens progenitor cells, n=3, P<0.001
Text: The cells were harvested and lysed. Supernatant and insoluble fractions were separated by centrifugation and analyzed by western blot analysis. LSS and crystallin fusion proteins were identified by antibodies against Flag and GFP tags, respectively. The lanosterol-treated group is highlighted by red boxes. Cells treated with 1% DMSO were used as a control. β-Actin was used as an internal protein loading control of total cell lysates (TCL). S, supernatant; P, insoluble fraction. […] Crystallin aggregates were formed by incubating 5 mg ml^−1 protein solution at 60° C. for 2 h (α-crystallins) or 37° C. for 48 h (β- and γ-crystallins) in the presence of 1 M guanidine chloride. The preformed aggregates were re-suspended in PBS at a final protein concentration of 0.2 mg ml^−1 and were treated with 500 μM sterols in 500 μM DPPC liposome and incubated at 37° C. for 24 h. […] Aggregates treated with 500 μM DPPC liposome only were used as the controls.
LC-MS analysis. […] The derived samples were analyzed by an Agilent 1290/6460 triple quadrupole LC/MS using an alternative Atmospheric Pressure Chemical Ionisation (APCI) source. […] Quantification of the western blot bands was achieved using the software GELPRO (Media Cybernetics). The presented quantitative data were calculated from three independent experiments.

CC(C)=CCC[C@@H](C)[C@H]1CC[C@@]2(C)C3=C(CC[C@]12C)[C@@]1(C)CC[C@H](O)C(C)(C)[C@@H]1CC3 [lanosterol, 3β-Hydroxy-8,24-lanostadiene; 8,24-Lanostadien-3β-ol]
intracellular aggregation / aggresome formation of crystallin proteins ([1]; 0-40 mM sterols in 1% DMSO for 2 h, then 12 h, concentration-dependent, n=3, lanosterol P<1×10^−4, cholesterol P>0.1): significantly inhibited aggresome formation; also recorded: significantly reduced the intracellular aggregation | crystallin aggregation in cells co-expressing an LSS mutant and a mutant crystallin (rescue by sterol) ([1]; 40 mM sterols in culture medium for 2 h, then fresh medium 24 h): successfully reduced crystallin aggregation | amount of mutant crystallins in the soluble fractions of cell lysates [2]: increased the amounts of mutant crystallins in the soluble fractions; also recorded: increased cataract-causing mutant crystallins in soluble fractions
